In ChEMBL document CHEMBL4177690, “(E)-3-(3,4,5-Trimethoxyphenyl)-1-(pyridin-4-yl)prop-2-en-1-one, a heterocyclic chalcone is a potent and selective CYP1A1 inhibitor and cancer chemopreventive agent” (Bioorg Med Chem Lett, 2017):

Legend:
Cytochrome P450 1A1 [1] = target: T1, Cytochrome P450 1A1 (Homo sapiens, UniProt P04798); assay: Inhibition of human CYP1A1 expressed in yeast microsomal membranes using 7-ethoxyresorufin as substrate measured after 10 mins by fluorescence assay; type: cell membranes
T1 sequence (P04798 whole entry): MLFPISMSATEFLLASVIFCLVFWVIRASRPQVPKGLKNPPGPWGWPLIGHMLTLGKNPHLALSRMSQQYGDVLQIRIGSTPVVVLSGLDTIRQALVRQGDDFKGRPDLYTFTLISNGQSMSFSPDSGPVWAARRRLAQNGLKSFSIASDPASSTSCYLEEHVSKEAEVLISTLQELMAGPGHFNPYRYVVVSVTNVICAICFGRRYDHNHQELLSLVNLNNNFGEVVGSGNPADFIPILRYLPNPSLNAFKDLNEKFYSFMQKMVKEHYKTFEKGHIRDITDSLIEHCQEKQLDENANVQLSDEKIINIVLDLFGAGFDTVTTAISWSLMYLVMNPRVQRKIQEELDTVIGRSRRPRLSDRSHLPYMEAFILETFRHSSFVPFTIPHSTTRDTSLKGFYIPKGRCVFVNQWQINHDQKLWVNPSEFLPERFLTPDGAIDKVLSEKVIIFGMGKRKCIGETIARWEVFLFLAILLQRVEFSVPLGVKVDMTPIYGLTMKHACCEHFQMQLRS

Cytochrome P450 2D6 [2] = target: T2, Cytochrome P450 2D6 (Homo sapiens, UniProt P10635); assay: Inhibition of human CYP2D6 expressed in yeast microsomal membranes using 7-ethoxy-methyloxy-3-cyanocoumarin as substrate measured after 10 mins by fluorescence assay; type: ADME, cell membranes, Microsomal Membrane
Cytochrome P450 1A2 [3] = target: T3, Cytochrome P450 1A2 (Homo sapiens, UniProt P05177); assay: Inhibition of human CYP1A2 expressed in yeast microsomal membranes using 3-cyano-7-ethoxycoumarin as substrate measured after 10 mins by fluorescence assay; type: ADME, cell membranes, Microsomal Membrane
T3 sequence (P05177 whole entry): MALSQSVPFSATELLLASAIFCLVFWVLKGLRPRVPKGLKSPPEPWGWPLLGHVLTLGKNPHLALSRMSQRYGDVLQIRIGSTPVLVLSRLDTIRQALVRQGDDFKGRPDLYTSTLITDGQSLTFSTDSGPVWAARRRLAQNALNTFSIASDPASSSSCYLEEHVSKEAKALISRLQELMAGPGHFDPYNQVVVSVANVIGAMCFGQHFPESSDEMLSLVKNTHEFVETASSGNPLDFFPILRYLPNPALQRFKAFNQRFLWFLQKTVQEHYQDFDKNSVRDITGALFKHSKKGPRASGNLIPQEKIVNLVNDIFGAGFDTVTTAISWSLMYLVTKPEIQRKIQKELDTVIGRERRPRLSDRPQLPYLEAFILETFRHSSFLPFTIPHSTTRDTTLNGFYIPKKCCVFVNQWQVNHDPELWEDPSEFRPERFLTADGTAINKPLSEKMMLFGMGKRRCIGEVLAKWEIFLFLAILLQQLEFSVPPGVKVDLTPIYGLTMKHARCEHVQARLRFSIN

Cytochrome P450 3A4 [4] = target: T4, Cytochrome P450 3A4 (Homo sapiens, UniProt P08684); assay: Inhibition of human CYP3A4 expressed in yeast microsomal membranes using dibenzylfluorescein as substrate measured after 10 mins by fluorescence assay; type: ADME, cell membranes, Microsomal Membrane
Cytochrome P450 2D6 [5] = target: T2, Cytochrome P450 2D6; assay: Inhibition of recombinant human CYP2D6 expressed in HEK293 cells using 7-ethoxy-methyloxy-3-cyanocoumarin as substrate pretreated for 30 mins followed by substrate addition measured for 60 mins by fluorescence assay; type: ADME, cell-based
Cytochrome P450 3A4 [6] = target: T4, Cytochrome P450 3A4; assay: Inhibition of recombinant human CYP3A4 expressed in HEK293 cells using dibenzylfluorescein as substrate pretreated for 30 mins followed by substrate addition measured for 60 mins by fluorescence assay; type: ADME
Cytochrome P450 2C19 [7] = target: T5, Cytochrome P450 2C19 (Homo sapiens, UniProt P33261); assay: Inhibition of recombinant human CYP2C19 expressed in HEK293 cells using 3-cyano-7-ethoxycoumarin as substrate pretreated for 30 mins followed by substrate addition measured for 60 mins by fluorescence assay; type: ADME
Cytochrome P450 2C19 [8] = target: T5, Cytochrome P450 2C19; assay: Inhibition of human CYP2C19 expressed in yeast microsomal membranes using 3-cyano-7-ethoxycoumarin as substrate measured after 10 mins by fluorescence assay; type: ADME, cell membranes, Microsomal Membrane
Cytochrome P450 1B1 [9] = target: T6, Cytochrome P450 1B1 (Homo sapiens, UniProt Q16678); assay: Inhibition of human CYP1B1 expressed in yeast microsomal membranes using 7-ethoxyresorufin as substrate measured after 10 mins by fluorescence assay; type: cell membranes
T6 sequence (Q16678 whole entry): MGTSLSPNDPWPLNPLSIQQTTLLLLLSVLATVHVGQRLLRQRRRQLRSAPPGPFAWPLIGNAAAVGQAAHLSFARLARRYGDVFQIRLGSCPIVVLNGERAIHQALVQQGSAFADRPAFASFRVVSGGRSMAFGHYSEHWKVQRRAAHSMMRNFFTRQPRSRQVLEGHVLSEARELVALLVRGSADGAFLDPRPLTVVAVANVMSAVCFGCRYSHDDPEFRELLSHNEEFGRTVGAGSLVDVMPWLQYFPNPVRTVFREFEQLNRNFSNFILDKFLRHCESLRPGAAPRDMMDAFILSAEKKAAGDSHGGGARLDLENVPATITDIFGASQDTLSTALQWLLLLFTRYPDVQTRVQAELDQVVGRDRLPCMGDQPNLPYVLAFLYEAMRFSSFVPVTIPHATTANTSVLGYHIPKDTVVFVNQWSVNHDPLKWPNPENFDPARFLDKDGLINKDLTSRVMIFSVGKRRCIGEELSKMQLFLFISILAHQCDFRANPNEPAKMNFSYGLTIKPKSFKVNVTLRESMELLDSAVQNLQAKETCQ

Cytochrome P450 2C9 [10] = target: T7, Cytochrome P450 2C9 (Homo sapiens, UniProt P11712); assay: Inhibition of recombinant human CYP2C9 expressed in HEK293 cells using 3-cyano-7-ethoxycoumarin as substrate pretreated for 30 mins followed by substrate addition measured for 60 mins by fluorescence assay; type: ADME
Cytochrome P450 1A1 [11] = target: T1, Cytochrome P450 1A1; assay: Inhibition of recombinant human CYP1A1 expressed in HEK293 cells using 7-ethoxyresorufin as substrate pretreated for 30 mins followed by substrate addition measured for 60 mins by fluorescence assay; type: cell-based
Cytochrome P450 2C9 [12] = target: T7, Cytochrome P450 2C9; assay: Inhibition of human CYP2C9 expressed in yeast microsomal membranes using 3-cyano-7-ethoxycoumarin as substrate measured after 10 mins by fluorescence assay; type: ADME, cell membranes, Microsomal Membrane
Cytochrome P450 1A2 [13] = target: T3, Cytochrome P450 1A2; assay: Inhibition of recombinant human CYP1A2 expressed in HEK293 cells using 3-cyano-7-ethoxycoumarin as substrate pretreated for 30 mins followed by substrate addition measured for 60 mins by fluorescence assay; type: ADME
Cytochrome P450 1B1 [14] = target: T6, Cytochrome P450 1B1; assay: Inhibition of recombinant human CYP1B1 expressed in HEK293 cells using 7-ethoxyresorufin as substrate pretreated for 30 mins followed by substrate addition measured for 60 mins by fluorescence assay; type: cell-based
Homo sapiens [15] = species: Homo sapiens; assay: Selectivity ratio of IC50 for recombinant human CYP1B1 expressed in HEK293 cells to IC50 for recombinant human CYP1A1 expressed in HEK293 cells; type: cell-based
Homo sapiens [16] = species: Homo sapiens; assay: Selectivity ratio of IC50 for recombinant human CYP1A2 expressed in HEK293 cells to IC50 for recombinant human CYP1A1 expressed in HEK293 cells; type: cell-based

T5 sequence (P33261 whole entry): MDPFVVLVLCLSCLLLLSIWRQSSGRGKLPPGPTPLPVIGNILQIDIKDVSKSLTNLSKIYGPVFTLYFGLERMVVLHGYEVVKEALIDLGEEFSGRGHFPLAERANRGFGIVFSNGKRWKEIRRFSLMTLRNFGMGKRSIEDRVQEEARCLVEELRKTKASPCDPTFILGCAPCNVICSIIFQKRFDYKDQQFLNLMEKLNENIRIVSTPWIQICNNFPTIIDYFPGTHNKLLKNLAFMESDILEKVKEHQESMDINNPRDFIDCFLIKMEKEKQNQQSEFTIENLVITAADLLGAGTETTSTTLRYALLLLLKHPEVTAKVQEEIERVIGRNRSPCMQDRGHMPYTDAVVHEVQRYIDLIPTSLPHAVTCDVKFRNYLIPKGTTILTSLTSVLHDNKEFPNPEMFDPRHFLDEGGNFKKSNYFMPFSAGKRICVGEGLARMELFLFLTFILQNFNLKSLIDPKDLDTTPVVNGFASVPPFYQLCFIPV
T2 sequence (P10635 whole entry): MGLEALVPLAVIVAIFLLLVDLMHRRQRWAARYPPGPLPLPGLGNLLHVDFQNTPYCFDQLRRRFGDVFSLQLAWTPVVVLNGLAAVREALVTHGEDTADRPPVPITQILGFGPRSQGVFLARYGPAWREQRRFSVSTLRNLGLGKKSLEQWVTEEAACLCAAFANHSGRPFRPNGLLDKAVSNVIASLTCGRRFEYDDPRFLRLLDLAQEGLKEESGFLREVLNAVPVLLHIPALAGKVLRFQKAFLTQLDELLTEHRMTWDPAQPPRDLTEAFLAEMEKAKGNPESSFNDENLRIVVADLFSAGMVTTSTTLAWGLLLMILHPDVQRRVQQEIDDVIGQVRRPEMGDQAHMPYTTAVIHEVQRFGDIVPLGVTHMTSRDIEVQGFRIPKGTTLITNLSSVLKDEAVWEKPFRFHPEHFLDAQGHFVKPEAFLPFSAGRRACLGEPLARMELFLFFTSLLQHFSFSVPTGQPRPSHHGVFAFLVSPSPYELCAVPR
T4 sequence (P08684 whole entry): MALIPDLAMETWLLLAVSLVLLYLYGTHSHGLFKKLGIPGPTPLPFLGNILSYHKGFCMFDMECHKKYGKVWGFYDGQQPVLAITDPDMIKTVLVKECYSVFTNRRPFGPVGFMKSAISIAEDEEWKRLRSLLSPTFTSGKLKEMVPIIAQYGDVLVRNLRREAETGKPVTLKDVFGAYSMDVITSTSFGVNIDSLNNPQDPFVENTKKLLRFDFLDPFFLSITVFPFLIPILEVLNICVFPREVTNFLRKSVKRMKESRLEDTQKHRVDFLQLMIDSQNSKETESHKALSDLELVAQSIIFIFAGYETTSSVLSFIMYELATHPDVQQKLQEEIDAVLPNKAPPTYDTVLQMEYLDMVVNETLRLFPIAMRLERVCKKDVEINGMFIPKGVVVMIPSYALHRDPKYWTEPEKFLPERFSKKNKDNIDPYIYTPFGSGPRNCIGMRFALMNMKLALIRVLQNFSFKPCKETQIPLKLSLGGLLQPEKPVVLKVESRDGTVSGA
T7 sequence (P11712 whole entry): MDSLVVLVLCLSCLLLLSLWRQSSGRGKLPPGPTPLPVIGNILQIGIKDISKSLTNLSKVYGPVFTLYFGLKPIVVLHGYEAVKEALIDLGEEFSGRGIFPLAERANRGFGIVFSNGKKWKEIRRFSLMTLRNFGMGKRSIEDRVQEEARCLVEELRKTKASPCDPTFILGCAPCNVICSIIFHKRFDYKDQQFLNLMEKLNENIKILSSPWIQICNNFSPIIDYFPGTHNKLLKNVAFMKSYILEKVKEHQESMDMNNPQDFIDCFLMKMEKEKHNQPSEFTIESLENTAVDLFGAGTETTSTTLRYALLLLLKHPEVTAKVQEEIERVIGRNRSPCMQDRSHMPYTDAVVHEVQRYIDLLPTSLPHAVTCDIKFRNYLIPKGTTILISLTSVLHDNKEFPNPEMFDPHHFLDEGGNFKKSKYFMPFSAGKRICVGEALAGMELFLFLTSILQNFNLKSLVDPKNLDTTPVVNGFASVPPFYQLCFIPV

IC50 (Cytochrome P450 1A1 [1])	IC50 (Cytochrome P450 2D6 [2])	IC50 (Cytochrome P450 1A2 [3])	IC50 (Cytochrome P450 3A4 [4])	IC50 (Cytochrome P450 2D6 [5])	IC50 (Cytochrome P450 3A4 [6])	IC50 (Cytochrome P450 2C19 [7])	IC50 (Cytochrome P450 2C19 [8])	IC50 (Cytochrome P450 1B1 [9])	IC50 (Cytochrome P450 2C9 [10])	IC50 (Cytochrome P450 1A1 [11])	IC50 (Cytochrome P450 2C9 [12])	IC50 (Cytochrome P450 1A2 [13])	IC50 (Cytochrome P450 1B1 [14])	SMILES	Ratio IC50 (Homo sapiens [15])	Ratio IC50 (Homo sapiens [16])
0.063 µM	17 µM	1.32 µM	> 20 µM	> 10 µM	> 10 µM	> 10 µM	> 20 µM	3.81 µM	> 10 µM	0.063 µM	> 20 µM	1.53 µM	4.76 µM	CCOc1cc(/C=C/C(=O)c2ccncc2)cc(OC)c1OC	< 10	< 10
0.23 µM	12 µM	2.58 µM	> 20 µM	> 10 µM	> 10 µM	> 10 µM	> 20 µM	0.698 µM	> 10 µM	0.28 µM	> 20 µM	2.21 µM	0.61 µM	CCOc1c(OC)cc(/C=C/C(=O)c2ccncc2)cc1OC	–	–
0.092 µM	14 µM	1.19 µM	> 20 µM	> 10 µM	> 10 µM	> 10 µM	> 20 µM	8.62 µM	> 10 µM	0.092 µM	> 20 µM	1.09 µM	9.92 µM	CCOc1cc(/C=C/C(=O)c2ccncc2)cc(OCC)c1OCC	< 10	< 10

Second part, the compound before the results:

SMILES	IC50 (Cytochrome P450 1A1 [1])	IC50 (Cytochrome P450 2D6 [2])	IC50 (Cytochrome P450 1A2 [3])	IC50 (Cytochrome P450 3A4 [4])	IC50 (Cytochrome P450 2D6 [5])	IC50 (Cytochrome P450 3A4 [6])	IC50 (Cytochrome P450 2C19 [7])	IC50 (Cytochrome P450 2C19 [8])	IC50 (Cytochrome P450 1B1 [9])	IC50 (Cytochrome P450 2C9 [10])	IC50 (Cytochrome P450 1A1 [11])	IC50 (Cytochrome P450 2C9 [12])	IC50 (Cytochrome P450 1A2 [13])	IC50 (Cytochrome P450 1B1 [14])	Ratio IC50 (Homo sapiens [15])	Ratio IC50 (Homo sapiens [16])
O=C(/C=C/c1ccc2c(c1)OCO2)c1ccncc1	1.12 µM	12 µM	1.5 µM	> 20 µM	> 10 µM	> 10 µM	> 10 µM	> 20 µM	2.11 µM	> 10 µM	1.12 µM	> 20 µM	1.5 µM	3.52 µM	–	–
COc1ccccc1/C=C/C(=O)c1ccncc1	0.57 µM	11 µM	0.032 µM	> 20 µM	> 10 µM	> 10 µM	> 10 µM	> 20 µM	0.048 µM	> 10 µM	0.61 µM	> 20 µM	0.032 µM	0.06 µM	–	–
O=C(/C=C/c1cccc2ccccc12)c1ccncc1	0.51 µM	18 µM	0.035 µM	> 20 µM	> 10 µM	> 10 µM	> 10 µM	> 20 µM	0.65 µM	> 10 µM	0.55 µM	> 20 µM	0.028 µM	0.75 µM	–	–
COc1ccc(/C=C/C(=O)c2ccncc2)cc1	6.31 µM	15 µM	12 µM	> 20 µM	> 10 µM	> 10 µM	> 10 µM	> 20 µM	7 µM	> 10 µM	6.61 µM	> 20 µM	12 µM	8.52 µM	–	–
COc1cccc(/C=C/C(=O)c2ccncc2)c1	0.59 µM	12 µM	0.02 µM	> 20 µM	> 10 µM	> 10 µM	> 10 µM	> 20 µM	0.054 µM	> 10 µM	0.62 µM	> 20 µM	0.02 µM	0.06 µM	–	–
COc1ccc(/C=C/C(=O)c2ccncc2)cc1OC	0.38 µM	8 µM	0.12 µM	> 20 µM	> 10 µM	> 10 µM	> 10 µM	> 20 µM	0.17 µM	> 10 µM	0.42 µM	> 20 µM	0.12 µM	0.23 µM	–	–
COc1cc(/C=C/C(=O)c2ccncc2)cc(OC)c1	0.18 µM	16 µM	0.028 µM	> 20 µM	> 10 µM	> 10 µM	> 10 µM	> 20 µM	0.041 µM	> 10 µM	0.22 µM	> 20 µM	0.028 µM	0.031 µM	–	–
